# Key:
# [1] = test system: 8505C (Thyroid Gland Carcinoma); assay: Bliss excess, mean over the matrix (fraction); higher = more synergy
# Summary of the method: (§1)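 Cell lines in DMEM/F12 or RPMI with 10% FBS were plated in 1536-well plates, held 24 hours at 37°C, 5% CO2, then given two-drug dose matrices for 72 hours (DMSO typically 0.2%). Viability was read by CellTiter-Glo 2.0 luminescence and scaled as inhibition from 0 (vehicle wells) to 1 (blank wells). Combination Emax is the second-highest inhibition in the matrix; Bliss excess is observed combination effect minus expected EA + EB − EA·EB, EA and EB being single-agent effects.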
# [2] = test system: COR-L279 (Small Cell Lung Carcinoma); assay: as above
# Summary of the method: as §1
# [3] = test system: DMS-114 (Small Cell Lung Carcinoma); assay: as above
# Summary of the method: as §1
# [4] = test system: ESO51 (Esophageal Adenocarcinoma); assay: as above
# Summary of the method: as §1
# [5] = test system: IM-95 (Gastric Carcinoma); assay: as above
# Summary of the method: as §1
# [6] = test system: KMS-12-BM (Plasma Cell Myeloma); assay: as above
# Summary of the method: as §1
# [7] = test system: KU812 (Chronic Myelogenous Leukemia); assay: as above
# Summary of the method: as §1
# [8] = test system: KY821 (Acute Myeloid Leukemia); assay: as above
# Summary of the method: as §1
# M059J (Glioblastoma) = assay: as above
# Summary of the method: as §1
# [9] = test system: MN-60 (B-Lymphoblastic Leukemia); assay: as above
# Summary of the method: as §1
# [10] = test system: MOG-G-CCM (Low Grade Glioma); assay: as above
# Summary of the method: as §1
# [11] = test system: NCI-H520 (Squamous Cell Lung Carcinoma); assay: as above
# Summary of the method: as §1
# [12] = test system: NCI-H661 (Non-Small Cell Lung Carcinoma); assay: as above
# Summary of the method: as §1
# [13] = test system: NCI-H929 (Plasma Cell Myeloma); assay: as above
# Summary of the method: as §1
# [14] = test system: PC-3 (Prostate Carcinoma); assay: as above
# Summary of the method: as §1
# RD (Rhabdomyosarcoma) = assay: as above
# Summary of the method: as §1
# SJSA-1 (Osteosarcoma) = assay: as above
# Summary of the method: as §1
# [15] = test system: SUP-B15 (B-Lymphoblastic Leukemia); assay: as above
# Summary of the method: as §1
# [16] = test system: VMRC-RCZ (Kidney Carcinoma); assay: as above
# Summary of the method: as §1
# [17] = test system: JHH-4 (Hepatocellular Carcinoma); assay: combination Emax (second highest fraction inhibited in the dose matrix, 72 h); higher = more inhibition; extreme values may be limits of the assay
# Summary of the method: as §1
# 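For Bliss excess, mean over the matrix in this document: after 72 h of two-drug dosing.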
Structure (SMILES),Bliss excess [1],Bliss excess [2],Bliss excess [3],Bliss excess [4],Bliss excess [5],Bliss excess [6],Bliss excess [7],Bliss excess [8],Bliss excess (M059J (Glioblastoma)),Bliss excess [9],Bliss excess [10],Bliss excess [11],Bliss excess [12],Bliss excess [13],Bliss excess [14],Bliss excess (RD (Rhabdomyosarcoma)),Bliss excess (SJSA-1 (Osteosarcoma)),Bliss excess [15],Bliss excess [16],combination Emax [17]
"Cn1cnc2c(F)c(Nc3ccc(Br)cc3Cl)c(C(=O)NOCCO)cc21 [Selumetinib] + CC(C)n1c(=O)n(C)c2cnc3cc(F)c(-c4ccc(OCCCN5CCCCC5)nc4)cc3c21 [AZD1390] (first compound max 10 µM, 7x7, partner max 0.3 µM)",-0.0717,-0.0094,-0.0191,0.0114,-0.0078,0.0032,-0.0227,0.0169,-0.0375,-0.0402,-0.0476,-0.0486,-0.0559,0.0105,-0.0688,-0.0405,-0.042,-0.0281,-0.0387,0.605
"CC1(C)CCC(CN2CCN(c3ccc(C(=O)NS(=O)(=O)c4ccc(NCC5CCOCC5)c([N+](=O)[O-])c4)c(Oc4cnc5[nH]ccc5c4)c3)CC2)=C(c2ccc(Cl)cc2)C1 [Venetoclax] + Cc1cc2ncnn2cc1Nc1ncc2c(n1)n(C1CCOCC1)c(=O)n2C [AZD7648] (first compound max 1 µM, 7x7, partner max 10 µM)",-0.0088,-0.0405,-0.0205,-0.0308,-0.0192,0.0378,-0.0174,0.056,-0.0144,-0.0125,-0.0528,0.0114,-0.0345,0.0418,-0.0245,-0.0373,-0.0404,-0.0374,-0.0696,0.208
"NC1(C(=O)N[C@@H](CCO)c2ccc(Cl)cc2)CCN(c2ncnc3[nH]ccc23)CC1 [Capivasertib] + CC(C)n1c(=O)n(C)c2cnc3cc(F)c(-c4ccc(OCCCN5CCCCC5)nc4)cc3c21 [AZD1390] (first compound max 10 µM, 7x7, partner max 0.3 µM)",-0.0376,-0.0055,-0.0465,-0.0416,-0.0656,-0.0274,-0.0037,-0.021,0.0135,-0.0685,-0.0302,-0.0559,-0.0692,-0.0187,-0.0345,-0.0146,-0.0843,-0.0059,-0.035,0.178
"CN(CCO)CC[C@H](CSc1ccccc1)Nc1ccc(S(=O)(=O)NC(=O)c2ccc(N3CCC([C@@H](O)c4ccccc4-c4ccc(Cl)cc4)CC3)cc2)cc1S(=O)(=O)C(F)(F)F [AZD4320] + C[C@@H](Nc1cc(F)cc(F)c1)c1cc(C(=O)N(C)C)cc2c(=O)cc(N3CCOCC3)oc12 [AZD8186] (first compound max 1 µM, 7x7, partner max 3 µM)",0.0411,0.0217,-0.0096,0.0996,0.0117,0.0652,0.0161,0.0053,0.0316,-0.0104,-0.018,0.0618,0.0424,-0.0036,0.057,0.0328,-0.0489,0.0179,-0.0096,0.34
"C[C@@H](c1ccc2nccn2c1)n1nnc2ncc(-c3cnn(C)c3)nc21 [Savolitinib] + CC1(C)CCC(CN2CCN(c3ccc(C(=O)NS(=O)(=O)c4ccc(NCC5CCOCC5)c([N+](=O)[O-])c4)c(Oc4cnc5[nH]ccc5c4)c3)CC2)=C(c2ccc(Cl)cc2)C1 [Venetoclax] (first compound max 1 µM, 7x7, partner max 1 µM)",-0.0664,-0.0059,0.0131,-0.0334,-0.0368,0.0253,-0.0303,-0.0139,-0.0321,-0.0341,-0.0448,-0.0333,-0.0651,0.0439,-0.0806,-0.0598,-0.0775,-0.0465,-0.0374,0.539
